Experimental data as given in US10696692B2, “Amido-benzyl sulfone and sulfoxide derivates” (Forma TM, LLC, priority 2012, dated 2020).

What was measured:
NAMPT = NAMPT (Homo sapiens (Human), UniProt P43490); assay: Assay 1: Biochemical Inhibition Assay (NAMPT enzymatic reaction, NMN quantified by mass spectrometry); details: read-out: Biochemical (IC50);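 note: recombinant His-tagged human NAMPT preincubated with compound 15 min, then reacted 30 min at rt with 1 µM NAM, 100 µM PRPP, 2.5 mM ATP, NMN product read by RapidFire MS, normalized to L-Cystathionine internal standard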
A2780 cells = assay: Assay 2: In-Vitro Cell Proliferation Assay (A2780 cells, SRB readout, 72 hours); format: cell-based; details: Homo sapiens, A2780, 72 h, A2780 cells, 72 hours, SRB; read-out: Cell Proliferation (IC50);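 note: viable cells counted via sulforhodamine B staining, absorbance at 570 nm, after 72 h exposure at 37 °C, DMSO 0.1% as control, media-only background subtracted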

NAMPT, sequence (P43490 whole entry): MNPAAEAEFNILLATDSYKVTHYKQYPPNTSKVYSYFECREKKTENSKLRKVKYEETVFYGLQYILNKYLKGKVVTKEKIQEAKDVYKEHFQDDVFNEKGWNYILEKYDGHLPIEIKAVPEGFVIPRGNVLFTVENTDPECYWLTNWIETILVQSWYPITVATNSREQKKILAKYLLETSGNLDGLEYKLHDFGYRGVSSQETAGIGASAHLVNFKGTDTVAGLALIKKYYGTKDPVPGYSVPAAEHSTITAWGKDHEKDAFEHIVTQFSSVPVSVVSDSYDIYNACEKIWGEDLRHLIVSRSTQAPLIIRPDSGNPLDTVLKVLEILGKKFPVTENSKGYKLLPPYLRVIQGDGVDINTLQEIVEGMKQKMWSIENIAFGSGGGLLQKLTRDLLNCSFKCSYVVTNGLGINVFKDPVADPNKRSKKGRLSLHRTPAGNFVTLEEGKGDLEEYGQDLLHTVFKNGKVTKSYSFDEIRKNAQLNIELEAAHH

Structure (SMILES) | IC50 (NAMPT) | IC50 (A2780 cells)
O=C(NCc1ccc(S(=O)(=O)C2CCNCC2)cc1)c1cnc2[nH]ncc2c1 [Example 203, N-[[4-(4-piperidylsulfonyl)phenyl]methyl]-1H-pyrazolo[3,4-b]pyridine-5-carboxamide] | 669 nM | 731 nM
O=C(NCc1ccc(S(=O)(=O)C2CCNCC2)cc1)c1cc2ccncc2s1 [Example 204, N-[[4-(4-piperidylsulfonyl)phenyl]methyl]thieno[2,3-c] pyridine-2-carboxamide] | 66 nM | 137 nM
O=C(NCc1ccc(S(=O)(=O)C2CCN(C3CCOCC3)CC2)cc1)c1cnc2[nH]ncc2c1 [Example 206, N-[[4-[(1-tetrahydropyran-4-yl-4-piperidyl)sulfonyl]phenyl]methyl]-1H-pyrazolo[3,4-b]pyridine-5-carboxamide] | 59.2 nM | 21.1 nM
CC(=O)N1CCC(S(=O)(=O)c2ccc(CNC(=O)c3cc4ccncc4o3)cc2)CC1 [Example 207, N-[[4-[(1-acetyl-4-piperidyl)sulfonyl]phenyl]methyl]furo[2,3-c]pyridine-2-carboxamide] | 29.3 nM | 25 nM
O=C(NCc1ccc(S(=O)(=O)C2CCN(CC(F)(F)F)CC2)cc1)c1cnc2[nH]ncc2c1 [Example 208, N-[[4-[[1-(2,2,2-trifluoroethyl)-4-piperidyl]sulfonyl]phenyl]methyl]-1H-pyrazolo[3,4-b]pyridine-5-carboxamide] | 47.7 nM | 10.8 nM
O=C(NCc1ccc(S(=O)(=O)C2CCN(CC(F)(F)F)CC2)cc1)c1cnc2nccn2c1 [Example 209, N-[[4-[[1-(2,2,2-trifluoroethyl)-4-piperidyl]sulfonyl]phenyl]methyl]imidazo[1,2-a]pyrimidine-6-carboxamide] | 3.72 nM | 8.84 nM
O=C(NCc1ccc(S(=O)(=O)C2CCN(CC(F)(F)F)CC2)cc1)c1ccc2nccn2c1 [Example 210, N-[[4-[[1-(2,2,2-trifluoroethyl)-4-piperidyl)sulfonyl]phenyl]methyl]imidazo[1,2-a]pyridine-6-carboxamide] | 17.7 nM | 3.47 nM
O=C(NCc1ccc(S(=O)(=O)C2CCN(CC(F)(F)F)CC2)cc1)c1cc2cnccc2[nH]1 [Example 211, N-[[4-[[1-(2,2,2-trifluoroethyl)-4-piperidyl]sulfonyl]phenyl]methyl]-1H-pyrrolo[3,2-c]pyridine-2-carboxamide] | 15.4 nM | 3.23 nM
O=C(NCc1ccc(S(=O)(=O)C2CCN(CC(F)(F)F)CC2)cc1)c1cc2ccncc2o1 [Example 212, N-[[4-[[1-(2,2,2-trifluoroethyl)-4-piperidyl]sulfonyl]phenyl]methyl]furo[2,3-c]pyridine-2-carboxamide] | 13.5 nM | 5.35 nM
O=C(NCc1ccc(S(=O)(=O)C2CCN(C3CCOCC3)CC2)cc1)c1ccc2nccn2c1 [Example 214, N-[[4-[(1-tetrahydropyran-4-yl-4-piperidyl)sulfonyl]phenyl]methyl]imidazo[1,2-a] pyridine-6-carboxamide] | 13.6 nM | 4.73 nM
O=C(NCc1ccc(S(=O)(=O)N2CCC3(CNC3)C2)cc1)c1ccc2nccn2c1 [Example 215, N-[[4-(2,6-diazaspiro[3.4]octan-6-ylsulfonyl)phenyl]methyl] imidazo[1,2-a]pyridine-6-carboxamide] | 81.5 nM | 166 nM
CN1CCC2(C1)CN(S(=O)(=O)c1ccc(CNC(=O)c3ccc4nccn4c3)cc1)C2 [Example 216, N-[[4-[(7-methyl-2,7-diazaspiro[3.4]octan-2-yl)sulfonyl]phenyl]methyl] imidazo[1,2-a]pyridine-6-carboxamide] | 30.4 nM | 13.7 nM
O=C(NCc1ccc(S(=O)(=O)N2CCC3(CCNC3=O)C2)cc1)c1ccc2nccn2c1 (stereo not drawn) [Example 217, N-[[4-[(1-oxo-2,7-diazaspiro[4.4]nonan-7-yl)sulfonyl]phenyl]methyl] imidazo[1,2-a]pyridine-6-carboxamide] | 16 nM | 10.1 nM
O=C(NCc1ccc(S(=O)(=O)N2CC3(CCOCC3)C2)cc1)c1ccc2nccn2c1 [Example 218, N-[[4-(7-oxa-2-azaspiro[3.5]nonan-2-ylsulfonyl)phenyl]methyl] imidazo[1,2-a]pyridine-6-carboxamide] | 10.3 nM | 3.45 nM
O=C(NCc1ccc(S(=O)(=O)N2CCC3(CCCO3)C2)cc1)c1ccc2nccn2c1 (stereo not drawn) [Example 219, N-[[4-(1-oxa-7-azaspiro[4.4]nonan-7-ylsulfonyl)phenyl]methyl] imidazo[1,2-a]pyridine-6-carboxamide] | 8.45 nM | 2.17 nM
O=C(NCc1ccc(S(=O)(=O)N2CC3(CCOC3)C2)cc1)c1ccc2nccn2c1 [Example 220, N-[[4-(6-oxa-2-azaspiro[3.4]octan-2-ylsulfonyl)phenyl]methyl] imidazo[1,2-a]pyridine-6-carboxamide] | 25 nM | 16.8 nM
O=C(NCc1ccc(S(=O)(=O)[C@H]2CCOC2)cc1)c1cc2cnccc2[nH]1 [Example 221, N-[[4-[(3S)-tetrahydrofuran-3-yl]sulfonylphenyl]methyl]-1H-pyrrolo[3,2-c]pyridine-2-carboxamide] | 125 nM | 347 nM

Structure (SMILES) | IC50 (NAMPT) | IC50 (A2780 cells)
O=C(NCc1ccc(S(=O)(=O)[C@H]2CCOC2)cc1)c1cnc2nccn2c1 [Example 222, N-[[4-[(3S)-tetrahydrofuran-3-yl]sulfonylphenyl]methyl] imidazo[1,2-a]pyrimidine-6-carboxamide] | 9.77 nM | 423 nM
O=C(NCc1ccc(S(=O)(=O)[C@H]2CCOC2)cc1)c1ccc2nccn2c1 [Example 223, N-[[4-[(3S)-tetrahydrofuran-3-yl]sulfonylphenyl]methyl] imidazo[1,2-a]pyridine-6-carboxamide] | 64.2 nM | 105 nM
O=C(NCc1ccc(S(=O)(=O)C2CCN(C3CCOCC3)CC2)cc1)c1cnc2nccn2c1 [Example 224, N-[[4-[(1-tetrahydropyran-4-yl-4-piperidyl)sulfonyl]phenyl]methyl]imidazo[1,2-a]pyrimidine-6-carboxamide] | 3.98 nM | 47.9 nM
O=C(NCc1ccc(S(=O)(=O)[C@@H]2CCOC2)cc1)c1cc2cnccc2[nH]1 [Example 225, N-[[4-[(3R)-tetrahydrofuran-3-yl]sulfonylphenyl]methyl]-1H-pyrrolo[3,2-c]pyridine-2-carboxamide] | 118 nM | 320 nM
O=C(NCc1ccc(S(=O)(=O)[C@@H]2CCOC2)cc1)c1cnc2nccn2c1 [Example 226, N-[[4-[(3R)-tetrahydrofuran-3-yl)sulfonylphenyl]methyl] imidazo[1,2-a]pyrimidine-6-carboxamide] | 8.88 nM | 457 nM
O=C(NCc1ccc(S(=O)(=O)[C@@H]2CCOC2)cc1)c1ccc2nccn2c1 [Example 227, N-[[4-((3R)-tetrahydrofuran-3-yl]sulfonylphenyl]methyl] imidazo[1,2-a]pyridine-6-carboxamide] | 51.3 nM | 98.4 nM
CC(=O)N1CCC(S(=O)(=O)c2ccc(CNC(=O)c3cnc4[nH]ncc4c3)cc2)CC1 [Example 228, N-[[4-(1-Acetylpiperidine-4-sulfonyl)phenyl]methyl]-1H-pyrazolo[3,4-b]pyridine-5-carboxamide] | 207 nM | 151 nM
CC(=O)N1CCC(S(=O)(=O)c2ccc(CNC(=O)c3cnc4nccn4c3)cc2)CC1 [Example 229, N-[[4-[(1-acetyl-4-piperidyl)sulfonyl]phenyl]methyl]imidazo[1,2-a]pyrimidine-6-carboxamide] | 5.12 nM | 527 nM
O=C(NCc1ccc(S(=O)(=O)[C@H]2CCOC2)cc1)c1cc2ccncc2o1 [Example 230, N-[[4-[(3S)-tetrahydrofuran-3-yl]sulfonylphenyl]methyl]furo [2,3-c]pyridine-2-carboxamide] | 73.8 nM | 243 nM
O=C(NCc1ccc(S(=O)(=O)[C@H]2CCOC2)cc1)c1cnc2[nH]ncc2c1 [Example 231, N-[[4-[(3S)-tetrahydrofuran-3-yl]sulfonylphenyl]methyl]-1H-pyrazolo[3,4-b]pyridine-5-carboxamide] | 315 nM | 977 nM
O=C(NCc1ccc(S(=O)(=O)[C@@H]2CCOC2)cc1)c1cc2ccncc2o1 [Example 232, N-[[4-[(3R)-tetrahydrofuran-3-yl]sulfonylphenyl]methyl]furo [2,3-c]pyridine-2-carboxamide] | 175 nM | 445 nM
O=C(NCc1ccc(S(=O)(=O)[C@@H]2CCOC2)cc1)c1cnc2[nH]ncc2c1 [Example 233, N-[[4-((3R)-tetrahydrofuran-3-yl]sulfonylphenyl]methyl]-1H-pyrazolo[3,4-b]pyridine-5-carboxamide] | 227 nM | 1590 nM
O=C(NCc1ccc(S(=O)(=O)C2CCNCC2)cc1)c1ccc2nccn2c1 [Example 234, N-[[4-(4-piperidylsulfonyl)phenyl]methyl]imidazo[1,2-a]pyridine-6-carboxamide] | 90.6 nM | 130 nM
CC(C)(C)OC(=O)N1CCC2(CC1)CCN(S(=O)(=O)c1ccc(CNC(=O)c3ccc4nccn4c3)cc1)C2 [Example 235, tert-butyl 2-[4-[(imidazo[1,2-a]pyridine-6-carbonylamino)methyl]phenyl] sulfonyl-2,8-diazaspiro[4.5]decane-8-carboxylate] | 16.4 nM | 36.3 nM
CC(C)(C)OC(=O)N1CCC2(CCCN2S(=O)(=O)c2ccc(CNC(=O)c3ccc4nccn4c3)cc2)C1 (stereo not drawn) [Example 237, tert-butyl 1-[4-[(imidazo[1,2-a]pyridine-6-carbonylamino)methyl]phenyl] sulfonyl-1,7-diazaspiro[4.4]nonane-7-carboxylate] | 109 nM | 38.8 nM
CC(C)(C)OC(=O)N1CCCC2(C1)CN(S(=O)(=O)c1ccc(CNC(=O)c3ccc4nccn4c3)cc1)C2 [Example 238, tert-butyl 2-[4-[(imidazo[1,2-a]pyridine-6-carbonylamino)methyl]phenyl] sulfonyl-2,8-diazaspiro[3.5]nonane-8-carboxylate] | 11.8 nM | 1.83 nM
